Measurements reported in PMC12888920, “MMP-9 regulates disulphide isomerase activity of TGM2 to enhance fusion glycoprotein-mediated syncytium formation of respiratory syncytial virus” (Protein & Cell, 2025).

Tested on: RSV F/G/SH pseudovirus
Experiment: RSV F/G/SH pseudovirus entry assay (luciferase)
Format: cell-based, Respiratory syncytial virus
Settings: 5 µmol/L, HEp-2, 48 hpi
Procedure: Figure 2. MMP-9 regulates late-stage RSV infection. (A) Time-of-addition assay design (left). HEp-2 cells were treated with metalloproteinase inhibitors under three regimens: “Full-time” (2 h pretreatment + continuous exposure), “Entry” (viral attachment phase only), or “Post-entry” (≥ 2 hpi). Cells infected with RSV A2 (MOI = 1) were analyzed for cytopathic effect inhibition at 72 hpi versus DMSO controls. mean ± SD, n = 3. (B) No inhibition of RSV F/G/SH pseudovirus entry by doxycycline hyclate or JNJ0966 (5 µmol/L). mean ± SD, n = 3. (C) Temporal sensitivity analysis (left). Viral RNA levels (22 hpi) in HEp-2 cells treated with 5 µmol/L inhibitors at defined intervals: pre-infection (−2–0 h), entry (0–2 h), or post-entry (2–16 h) phases (right). mean ± SD, n = 3. (D) Multicycle replication kinetics. Intracellular RSV RNA (fusion gene copies) in HEp-2 cells treated with 5 µmol/L inhibitors at indicated time points (4–144 hpi). mean ± SD, n = 3. (E) Viral assembly/release inhibition assay. Supernatant viral titers at 22 hpi after post-entry treatment (10/16 hpi) (right). mean ± SD, n = 3. (F) Dose-dependent suppression of RSV progeny (MOI = 0.2/1) by inhibitors (72 hpi), quantified by FFA. mean ± SD, n = 3. […] The results are representatively shown with three random experiments. The error bars indicate the mean ± SD of three technical replicates (n = 3). […]

Compound	inhibition of RSV F/G/SH pseudovirus entry
COc1ccccc1Nc1nc(-c2sc(NC(C)=O)nc2C)cs1 [JNJ0966]	No inhibition
Doxycycline hyclate	No inhibition
